Measured values taken from publication PMC6048275, “Methylpiperidinium Iodides as Novel Antagonists for α7 Nicotinic Acetylcholine Receptors” (Frontiers in Pharmacology, 2018).

Target: T1, rat hippocampal α7 nAChR (endogenous, CA1 stratum radiatum interneurons) (Rattus norvegicus, UniProt Q05941)
T1 construct: gene Chrna7; native full-length homopentamer in rat hippocampal CA1 interneurons in brain slices
Assay: whole-cell voltage clamp, choline-induced current, rat CA1 interneurons in slice
Details: 10 mM choline puffs; antagonist; -70 mV; pH 7.4; room temperature; approximate, read from concentration-response curve; voltage-independent; native receptor, α7β2 possibly mixed; read-out: 50% inhibition of ICh

T1 sequence (Q05941 23-502): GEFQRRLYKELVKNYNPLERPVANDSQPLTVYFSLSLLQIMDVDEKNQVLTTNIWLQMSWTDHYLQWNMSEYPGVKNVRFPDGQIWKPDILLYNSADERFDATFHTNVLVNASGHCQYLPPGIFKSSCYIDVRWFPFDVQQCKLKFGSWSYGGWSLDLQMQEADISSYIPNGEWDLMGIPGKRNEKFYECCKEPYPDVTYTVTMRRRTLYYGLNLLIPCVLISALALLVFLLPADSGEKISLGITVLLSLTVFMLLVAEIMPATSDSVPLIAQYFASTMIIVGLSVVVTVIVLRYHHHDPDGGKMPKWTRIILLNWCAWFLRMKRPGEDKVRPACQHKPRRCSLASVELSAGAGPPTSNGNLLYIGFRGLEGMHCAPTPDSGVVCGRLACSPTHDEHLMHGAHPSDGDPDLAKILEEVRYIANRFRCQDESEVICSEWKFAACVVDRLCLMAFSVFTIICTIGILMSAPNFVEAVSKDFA

IC50: ~5 µM
Compound: CCCCCCCOc1ccc(OCC[N+]2(C)CCCCC2)cc1 [12a]
